Tests used:
[1] = test system: promyelocyte leukemia cell strain HL-60; test: Test for induction of cell differentiation in HL-60 cells (NBT reduction ability); type: cell-based; details: for Ratio of cells for which differentiation was induced by each compound alone (%): calculated from NBT reduction ability; for Ratio of cells for which differentiation was induced by each compound in combination with 1 × 10^−7 M of HX630 (%): in combination with 1×10^−7 M HX630 (retinoid synergist)
Protocol: For each of the compounds of the examples, action for inducing cell differentiation was examined for each alone and in combination with 1×10^−7 M of HX630. According to the methods described in Japanese Patent Unexamined Publication (KOKAI) No. (Sho)61-76440/1986, differentiation of the cells of promyelocyte leukemia cell strain HL-60 into granulocytic series cells was determined based on morphological change and measurement of ability to reduce nitro blue tetrazolium (NBT). The ratios (%) of differentiated cells shown in the following table are those calculated from NBT reduction ability. HX630 is a retinoid synergist that enhances actions of retinoids, and the concentrations of −8, −7 and −6 mean that each compound was added at concentrations of 1×10^−8 M, 1×10^−7 M and 1×10^−6 M, respectively.

CC1(C)CCC(C)(C)c2cc(-c3ccc(O)c(=O)cc3)ccc21 [Tp05]
melting point: 161 °C | Ratio of cells for which differentiation was induced by each compound alone (%) ([1]; concentration -6 (1×10^−6 M)): 13% | Ratio of cells for which differentiation was induced by each compound alone (%) ([1]; concentration -7 (1×10^−7 M)): 0.5% | Ratio of cells for which differentiation was induced by each compound alone (%) ([1]; concentration -8 (1×10^−8 M)): 0.6% | Ratio of cells for which differentiation was induced by each compound in combination with 1 × 10^−7 M of HX630 (%) ([1]; compound concentration -6 (1×10^−6 M)): 35% | Ratio of cells for which differentiation was induced by each compound in combination with 1 × 10^−7 M of HX630 (%) ([1]; compound concentration -7 (1×10^−7 M)): 1.2% | Ratio of cells for which differentiation was induced by each compound in combination with 1 × 10^−7 M of HX630 (%) ([1]; compound concentration -8 (1×10^−8 M)): 1.2%
